The subject of series [1] is HT-29.
Series [2] deals with MEL-28.
Series [3] deals with DU-145.
For series [4], the system named is A-549.
For series [5], the system named is P-388.
Series [6] deals with P-388. Description: Cytotoxic activity IC50, P-388.
Series [7] relates to DU-145. Description: Cytotoxic activity IC50, DU-145.
For series [8], the system named is A-549. Briefly: Cytotoxic activity IC50, A-549.
The test system of series [9] is HT-29. Briefly: Cytotoxic activity IC50, HT-29.
Series [10] relates to MEL-28. Description: Cytotoxic activity IC50, MEL-28.
[11] abbreviates: Mus musculus, P388, read-out: CYTOTOXIC ACTIVITIY IC50 (μM) P-388.
[12] abbreviates: Homo sapiens, DU-145, read-out: CYTOTOXIC ACTIVITIY IC50 (μM) DU-145, DU-145.
Where [13] appears, read: Homo sapiens, A549, read-out: CYTOTOXIC ACTIVITIY IC50 (μM) A-549, A-549.
Setting [14] is: Homo sapiens, HT-29, read-out: CYTOTOXIC ACTIVITIY IC50 (μM) HT-29, HT-29.
The mark [15] stands for this setting: Homo sapiens, SK-MEL-28, read-out: CYTOTOXIC ACTIVITIY IC50 (μM) MEL-28, MEL-28.

Read-outs that look alike come from different tables or passages of the source.

In the case of `CCCC(=O)OC[C@H]1c2c(c(OC(C)=O)c(C)c3c2OCO3)CC2[C@H]3c4c(cc(C)c(OC)c4O)C[C@@H]([C@H](O)N21)N3C` (stereo partly shown) [drawing 156], the IC50 in series [1], in series [2], in [3], in series [4] and in [5] was 100 pM each time.

With `COc1c(C)cc2c(c1O)[C@@H]1C3Cc4c(OC(C)=O)c(C)c5c(c4[C@H](COC(=O)/C=C/c4ccccc4)N3[C@@H](O)[C@H](C2)N1C)OCO5` (stereo partly shown) [drawing 159], the IC50 (commonly the concentration that inhibits the measured activity by half) in series [5] was determined as 100 pM.

Take `CCCC(=O)OC[C@H]1c2c(c(OC(C)=O)c(C)c3c2OCO3)CC2[C@H]3c4c(cc(C)c(OC)c4OCOC)C[C@@H]([C@H](C#N)N21)N3C` (stereo partly shown) [drawing 148]: the IC50 is 100000 pM in [1] (human); 0.1 µM in series [6] (setting [11]); 100000 pM in series [2] (human); 100000 pM in series [3] (human); 100000 pM in [4] (human).

On to `C/C=C/C(=O)NC[C@H]1c2c(c(OC(C)=O)c(C)c3c2OCO3)CC2[C@H]3c4c(cc(C)c(OC)c4O)C[C@@H]([C@H](O)N21)N3C` (stereo partly shown), for which the IC50 turned out to be 0.0008 µM in [7] (setting [12]); 100 pM in series [1]; 100 pM in [2]; 100 pM in series [5]; 0.0008 µM in series [8] (setting [13]).

With `CCC(=O)NC[C@H]1c2c(c(OC(C)=O)c(C)c3c2OCO3)CC2[C@H]3c4c(cc(C)c(OC)c4O)C[C@@H]([C@H](C#N)N21)N3C` (stereo partly shown), the IC50 in series [1], in series [2], in [3], in [4] and in [5] was 100 pM throughout.

Turning to `COc1c(C)cc2c(c1O)[C@@H]1C3Cc4c(OC(C)=O)c(C)c5c(c4[C@H](CNC(=O)CCc4ccccc4)N3[C@@H](O)[C@H](C2)N1C)OCO5` (stereo partly shown) [drawing 123], the IC50 in [1], in series [2], in series [3], in series [4] and in [5] was 100 pM throughout.

On to `C=CCOC(=O)Oc1c(C)c2c(c3c1CC1[C@H]4c5c(cc(C)c(OC)c5O)C[C@@H]([C@H](O)N1[C@H]3CNC(=O)CCc1ccccc1)N4C)OCO2` (stereo partly shown), for which the IC50 in series [1], in series [2], in [3], in series [4] and in series [5] was 100 pM throughout.

For `C=CCOC(=O)Oc1c(C)c2c(c3c1CC1[C@H]4c5c(cc(C)c(OC)c5O)C[C@@H]([C@H](O)N1[C@H]3CNC(=O)/C=C/c1ccccc1)N4C)OCO2` (stereo partly shown), the IC50 in [1], in series [2], in series [3], in series [4] and in series [5] was 100 pM each time.

As for `COc1c(C)cc2c(c1O)[C@@H]1C3Cc4c(OC(C)=O)c(C)c5c(c4[C@H](CNC(=O)[C@H](C)NC(=O)C(F)(F)F)N3[C@@H](O)[C@H](C2)N1C)OCO5` (stereo partly shown) [drawing 110], the half-inhibitory concentration (IC50) in [1], in series [2], in [3], in [4] and in [5] was 100 pM throughout.

As to `C/C=C(\OC(C)=O)C1=C(C2=COCO2)[C@H](CNC(=O)/C=C/c2ccccc2)N2C(C1)[C@H]1c3c(cc(C)c(OC)c3O)C[C@@H]([C@@H]2C#N)N1C` (stereo partly shown), the IC50 in [1], in [2], in [3], in series [4] and in [5] was 100 pM each time.

As for `COc1c(C)cc2c(c1O)[C@@H]1C3Cc4c(OC(C)=O)c(C)c5c(c4[C@H](COC(=O)/C=C/c4cccc(C(F)(F)F)c4)N3[C@@H](O)[C@H](C2)N1C)OCO5` (stereo partly shown) [drawing 157], the half-maximal inhibitory concentration (IC50) in [1], in [2], in [3], in series [4] and in [5] was 100 pM each time.

As for `C=CCOC(=O)Oc1c(C)c2c(c3c1CC1[C@H]4c5c(cc(C)c(OC)c5O)C[C@@H]([C@H](C#N)N1[C@H]3CNC(=O)CCc1ccccc1)N4C)OCO2` (stereo partly shown), the IC50 in [1], in [2], in series [3], in [4] and in series [5] was 100 pM throughout.

Turning to `COc1c(C)cc2c(c1O)[C@@H]1C3Cc4c(OC(C)=O)c(C)c5c(c4[C@H](COC(=O)CCc4ccccc4)N3[C@@H](C#N)[C@H](C2)N1C)OCO5` (stereo partly shown), the 50% inhibitory concentration (IC50) in series [1], in series [2], in [3], in series [4] and in series [5] was 100 pM in each case.

In the case of `COc1c(C)cc2c(c1O)[C@@H]1C3Cc4c(OC(C)=O)c(C)c5c(c4[C@H](CNC(=O)/C=C/c4ccccc4)N3[C@@H](O)[C@H](C2)N1C)OCO5` (stereo partly shown) [drawing 113], the half-inhibitory concentration (IC50) in series [1], in series [2], in series [3], in series [4] and in series [5] was 100 pM throughout.

Compound `COc1c(C)cc2c(c1O)[C@@H]1C3Cc4c(OC(C)=O)c(C)c5c(c4[C@H](CNC(=O)[C@H](C)NC(=O)/C=C/c4ccccc4)N3[C@@H](C#N)[C@H](C2)N1C)OCO5` (stereo partly shown) displayed an IC50 in [1] of 100 pM.

On to `CCCCCC(=O)NC[C@H]1c2c(c(OC(C)=O)c(C)c3c2OCO3)CC2[C@H]3c4c(cc(C)c(OC)c4O)C[C@@H]([C@H](C#N)N21)N3C` (stereo partly shown) [drawing 126], for which the IC50 in series [5] is 100 pM.

`C=CCOC(=O)Oc1c(C)c2c(c3c1CC1[C@H]4c5c(cc(C)c(OC)c5O)C[C@@H]([C@H](C#N)N1[C@H]3CNC(=O)OCC(Cl)(Cl)Cl)N4C)OCO2` (stereo partly shown): the IC50 in series [9] (setting [14]), in series [7] (setting [12]), in [6] (setting [11]), in [10] (setting [15]) and in series [8] (setting [13]) was 0.006 µM each time.

In the case of `C=CCOC(=O)Oc1c(C)c2c(c3c1CC1[C@H]4c5c(cc(C)c(OC)c5O)C[C@@H]([C@H](C#N)N1[C@H]3CNC(=O)[C@H](C)NC(=S)Nc1ccccc1)N4C)OCO2` (stereo partly shown), the concentration for half-maximal inhibition (IC50) in series [9] (setting [14]), in [7] (setting [12]), in series [6] (setting [11]), in series [10] (setting [15]) and in series [8] (setting [13]) was 0.001 µM each time.

Turning to `COc1c(C)cc2c(c1O)[C@@H]1C3Cc4c(OC(C)=O)c(C)c5c(c4[C@H](COC(=O)/C=C/c4cccc(C(F)(F)F)c4)N3[C@@H](C#N)[C@H](C2)N1C)OCO5` (stereo partly shown), the IC50 in series [9] (setting [14]), in series [7] (setting [12]), in [6] (setting [11]), in [10] (setting [15]) and in series [8] (setting [13]) was 0.001 µM in each case.

In the case of `C/C=C/C(=O)NC[C@H]1c2c(c(OC(C)=O)c(C)c3c2OCO3)CC2[C@H]3c4c(cc(C)c(OC)c4O)C[C@@H]([C@H](C#N)N21)N3C` (stereo partly shown), the half-maximal inhibitory concentration (IC50) in series [7] (setting [12]) stood at 0.0008 µM; in series [1], 100 pM; in series [2], 100 pM; in [5] it was 100 pM; in [8] (setting [13]) it was 0.0008 µM.

For the compound `COc1c(C)cc2c(c1O)[C@@H]1C3Cc4c(OC(C)=O)c(C)c5c(c4[C@H](CNC(=O)/C=C/c4cccc(C(F)(F)F)c4)N3[C@@H](O)[C@H](C2)N1C)OCO5` (stereo partly shown) [drawing 109], the IC50 is 0.0001 µM in series [9] (read-out: CYTOTOXIC ACTIVITIY IC50 (μM) HT-29, HT-29); 0.0001 µM in series [7] (read-out: CYTOTOXIC ACTIVITIY IC50 (μM) DU-145, DU-145); 0.0001 µM in series [6] (read-out: CYTOTOXIC ACTIVITIY IC50 (μM) P-388, P-388); 0.0001 µM in series [10] (read-out: CYTOTOXIC ACTIVITIY IC50 (μM) MEL-28, MEL-28); 0.0001 µM in series [8] (read-out: CYTOTOXIC ACTIVITIY IC50 (μM) A-549, A-549).

`COCOc1c(OC)c(C)cc2c1[C@@H]1C3Cc4c(O)c(C)c5c(c4[C@H](CNC(=O)CCc4ccccc4)N3[C@@H](C#N)[C@H](C2)N1C)OCO5` (stereo partly shown): the IC50 in [9] (setting [14]), in [7] (setting [12]), in series [6] (setting [11]), in [10] (setting [15]) and in [8] (setting [13]) was 0.1 µM each time.

With `COCOc1c(OC)c(C)cc2c1[C@@H]1C3Cc4c(O)c(C)c5c(c4[C@H](COC(=O)CCc4ccccc4)N3[C@@H](C#N)[C@H](C2)N1C)OCO5` (stereo partly shown), the half-maximal inhibitory concentration (IC50) in series [9] (setting [14]), in series [7] (setting [12]), in [6] (setting [11]), in series [10] (setting [15]) and in series [8] (setting [13]) was 0.1 µM in each case.

Turning to `CCCC(=O)NC[C@H]1c2c(c(OC(C)=O)c(C)c3c2OCO3)CC2[C@H]3c4c(cc(C)c(OC)c4O)C[C@@H]([C@H](O)N21)N3C` (stereo partly shown) [drawing 114], the IC50 in series [1] was determined as 100 pM; in series [6] (setting [11]), 0.0008 µM; in [10] (setting [15]) it was 0.0008 µM; in series [3], 100 pM; in series [8] (setting [13]), 0.0008 µM.

As for `COc1c(C)cc2c(c1O)[C@@H]1C3Cc4c(O)c(C)c5c(c4[C@H](CNC(=O)/C=C/c4ccccc4)N3[C@@H](C#N)[C@H](C2)N1C)OCO5` (stereo partly shown), the IC50 in series [9] (setting [14]), in series [7] (setting [12]), in series [6] (setting [11]), in [10] (setting [15]) and in series [8] (setting [13]) was 0.001 µM each time.

With `CCC(=O)N[C@@H](C)C(=O)NC[C@H]1c2c(c(OC(C)=O)c(C)c3c2OCO3)CC2[C@H]3c4c(cc(C)c(OC)c4O)C[C@@H]([C@H](C#N)N21)N3C` (stereo partly shown), the IC50 in series [9] (setting [14]), in series [7] (setting [12]), in series [6] (setting [11]), in series [10] (setting [15]) and in series [8] (setting [13]) was 0.0007 µM each time.

Values taken from US8012975B2, “Antitumoral analogs of ET-743” (Pharma Mar, S.A., priority 2000, dated 2011).
